Test results reported in US20050112573A1, “Method of detecting toxic substance” (priority 2001, published 2005).

Tested on: yeast genes (level of expressed mRNA)
Assay: DNA chip analysis of expressed mRNA of yeast genes after 2 h culture with a toxic chemical substance
Format: cell-based, Saccharomyces cerevisiae S288C
Method in brief: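 S. cerevisiae S288C grown at 25° C in YPD; toxicant added at log phase at growth-inhibitory, non-lethal levels for 2 h, untreated cells as control. Poly(A) mRNA reverse-transcribed with Cy3/Cy5-dUTP, hybridized to whole-genome chip at 65° C >12 h; value is fluorescence ratio versus untreated.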

manganese ethylenebis(dithiocarbamate) [(8)]
The level of expressed mRNA in the presence of chemical substance/ (yeast gene YKL086W, ratio to control without chemical): 1.1
The level of expressed mRNA in the presence of chemical substance/The level of expressed mRNA in the absence of chemical substance (yeast gene YKL096W): 0.5
The level of expressed mRNA in the presence of chemical substance/ (yeast gene YKL151C, ratio to control without chemical substance, 2 h culture): 1.0
The level of expressed mRNA in the presence of chemical substance/ (yeast gene YKL153W, ratio to control without chemical substance, 2 h culture): 0.7
The level of expressed mRNA in the presence of chemical substance/The level of expressed mRNA in the absence of chemical substance (yeast gene YKL165C): 1.5
The level of expressed mRNA in the presence of chemical substance/The level of expressed mRNA in the absence of chemical substance (yeast gene YKL193C): 1.4
The level of expressed mRNA in the presence of chemical substance/ (yeast gene YKL195W, ratio to control without chemical substance, 2 h culture): 1.2
The level of expressed mRNA in the presence of chemical substance/in the absence of chemical substance (yeast gene YKR009C): 0.9
The level of expressed mRNA in the presence of chemical substance/ (yeast gene YKR091W, ratio to control without chemical): 1.3
The level of expressed mRNA in the presence of chemical substance/ (yeast gene YLR054C, ratio to control without chemical substance, 2 h culture): 1.1
The level of expressed mRNA in the presence of chemical substance/The level of expressed mRNA in the absence of chemical substance (yeast gene YLR120C): 0.9
The level of expressed mRNA in the presence of chemical substance/The level of expressed mRNA in the absence of chemical substance (yeast gene YLR136C): 1.1
The level of expressed mRNA in the presence of chemical substance/ (yeast gene YLR149C, ratio to control without chemical substance, 2 h culture): 1.1
The level of expressed mRNA in the presence of chemical substance/ (yeast gene YLR152C, ratio to control without chemical substance, 2 h culture): 1.2
The level of expressed mRNA in the presence of chemical substance/The level of expressed mRNA in the absence of chemical substance (yeast gene YLR178C): 0.9
The level of expressed mRNA in the presence of chemical substance/ (yeast gene YLR194C, ratio to control without chemical): 1.0
The level of expressed mRNA in the presence of chemical substance/The level of expressed mRNA in the absence of chemical substance (yeast gene YLR250W): 1.3
The level of expressed mRNA in the presence of chemical substance/ (yeast gene YLR324W, ratio to control without chemical substance, 2 h culture): 1.0
The level of expressed mRNA in the presence of chemical substance/The level of expressed mRNA in the absence of chemical substance (yeast gene YLR327C): 2.2
The level of expressed mRNA in the presence of chemical substance/ (yeast gene YLR350W, ratio to control without chemical substance, 2 h culture): 1.0
The level of expressed mRNA in the presence of chemical substance/in the absence of chemical substance (yeast gene YLR351C): 1.2
The level of expressed mRNA in the presence of chemical substance/The level of expressed mRNA in the absence of chemical substance (yeast gene YLR356W): 0.7
The level of expressed mRNA in the presence of chemical substance/The level of expressed mRNA in the absence of chemical substance (yeast gene YLR362W): 1.4
The level of expressed mRNA in the presence of chemical substance/in the absence of chemical substance (yeast gene YLR375W): 1.0
The level of expressed mRNA in the presence of chemical substance/ (yeast gene YLR387C, ratio to control without chemical substance, 2 h culture): 1.4
The level of expressed mRNA in the presence of chemical substance/The level of expressed mRNA in the absence of chemical substance (yeast gene YLR391W): 0.7
The level of expressed mRNA in the presence of chemical substance/The level of expressed mRNA in the absence of chemical substance (yeast gene YLR429W): 1.0
The level of expressed mRNA in the presence of chemical substance/ (yeast gene YLR460C, ratio to control without chemical substance, 2 h culture): 8.1
The level of expressed mRNA in the presence of chemical substance/ (yeast gene YML117W, ratio to control without chemical substance, 2 h culture): 0.7
The level of expressed mRNA in the presence of chemical substance/The level of expressed mRNA in the absence of chemical substance (yeast gene YMR004W): 1.0
The level of expressed mRNA in the presence of chemical substance/ (yeast gene YMR009W, ratio to control without chemical substance, 2 h culture): 1.4
The level of expressed mRNA in the presence of chemical substance/ (yeast gene YMR067C, ratio to control without chemical substance, 2 h culture): 1.1
The level of expressed mRNA in the presence of chemical substance/ (yeast gene YMR090W, ratio to control without chemical substance, 2 h culture): 3.9
The level of expressed mRNA in the presence of chemical substance/The level of expressed mRNA in the absence of chemical substance (yeast gene YMR094W): 1.0
The level of expressed mRNA in the presence of chemical substance/ (yeast gene YMR095C, ratio to control without chemical): 1.2
The level of expressed mRNA in the presence of chemical substance/ (yeast gene YMR097C, ratio to control without chemical substance, 2 h culture): 1.5
The level of expressed mRNA in the presence of chemical substance/ (yeast gene YMR102C, ratio to control without chemical substance, 2 h culture): 1.0
The level of expressed mRNA in the presence of chemical substance/The level of expressed mRNA in the absence of chemical substance (yeast gene YMR104C): 0.9
The level of expressed mRNA in the presence of chemical substance/ (yeast gene YMR107W, ratio to control without chemical substance, 2 h culture): 1.3
The level of expressed mRNA in the presence of chemical substance/ (yeast gene YMR180C, ratio to control without chemical substance, 2 h culture): 1.8
The level of expressed mRNA in the presence of chemical substance/ (yeast gene YMR184W, ratio to control without chemical substance, 2 h culture): 1.9
The level of expressed mRNA in the presence of chemical substance/ (yeast gene YMR191W, ratio to control without chemical substance, 2 h culture): 1.1
The level of expressed mRNA in the presence of chemical substance/The level of expressed mRNA in the absence of chemical substance (yeast gene YMR219W): 1.1
The level of expressed mRNA in the presence of chemical substance/The level of expressed mRNA in the absence of chemical substance (yeast gene YMR226C): 1.6
The level of expressed mRNA in the presence of chemical substance/in the absence of chemical substance (yeast gene YMR267W): 1.5
The level of expressed mRNA in the presence of chemical substance/The level of expressed mRNA in the absence of chemical substance (yeast gene YMR275C): 0.8
The level of expressed mRNA in the presence of chemical substance/The level of expressed mRNA in the absence of chemical substance (yeast gene YMR276W): 0.8
The level of expressed mRNA in the presence of chemical substance/in the absence of chemical substance (yeast gene YMR278W): 1.1
The level of expressed mRNA in the presence of chemical substance/in the absence of chemical substance (yeast gene YMR293C): 1.0
The level of expressed mRNA in the presence of chemical substance/ (yeast gene YMR295C, ratio to control without chemical substance, 2 h culture): 1.0
The level of expressed mRNA in the presence of chemical substance/The level of expressed mRNA in the absence of chemical substance (yeast gene YMR314W): 1.2
The level of expressed mRNA in the presence of chemical substance/ (yeast gene YMR316W, ratio to control without chemical substance, 2 h culture): 1.6
The level of expressed mRNA in the presence of chemical substance/The level of expressed mRNA in the absence of chemical substance (yeast gene YNL006W): 1.1
The level of expressed mRNA in the presence of chemical substance/The level of expressed mRNA in the absence of chemical substance (yeast gene YNL007C): 0.8
The level of expressed mRNA in the presence of chemical substance/ (yeast gene YNL044W, ratio to control without chemical substance, 2 h culture): 1.8
